From US11629341B2, “Method for producing selenoneine” (KIKKOMAN CORPORATION, priority 2015, dated 2023)

Tests used:
E. coli = test: main culture of transformed E. coli in TY medium containing selenocystine; assay type: cell-based; conditions: TY++ line: 0.1 mM selenocystine present during the initial stage of culture, 25° C.
Protocol: In a 19 ml test tube, each of the bacterial strains shown in Table 13 was inoculated into 2.5 ml of a TY medium. The inoculated medium was then seed-cultured at 37° C. for 16 hours while agitated at 180 rpm. In a 19 ml test tube, 20 μl of the seed culture was inoculated into 2.5 ml of a TY medium containing ampicillin and 0.5 mM IPTG. The inoculated medium was then main-cultured at 25° C. for 20.5 hours while agitated at 180 rpm. Three different lines of TY medium were prepared for the main culture: a TY medium containing 0.1 mM selenocystine (TY++), a TY medium containing 0.01 mM selenocystine (TY+), and a TY medium to which selenocystine was added to 0.01 mM six hours after the start of culture (TY+∘).
In addition, the amount of selenoneine produced by the (EcEgtA+EcEgtC) transformant was higher than that of the EcEgtA transformant and the difference between the two transformants was more significant in the culture supernatants.

[1] = compared with ergothioneine; cited from earlier work

Compound	growth inhibition (E. coli)	antioxidant activity relative to ergothioneine [1]
N[C@@H](C[Se][Se]C[C@H](N)C(=O)O)C(=O)O [selenocystine]	caused growth inhibition	–
C[N+](C)(C)[C@@H](Cc1cnc([Se-])[nH]1)C(=O)O [selenoneine]	–	1,000 times
